According to PubChem BioAssay (NCI):
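Exposure lasted 48 hours, with cells grown in 96-well plates and compounds tested at five concentrations. GI50 marks 50% less growth. TGI denotes the concentration required for complete inhibition of growth.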

How the values were obtained:
Test in all cases: NCI-60 cell line screen, 48 h
[1] = test system: SK-MEL-5 melanoma
[2] = test system: NCI-H522 lung
[3] = test system: OVCAR-4 ovarian
[4] = test system: OVCAR-8 ovarian
[5] = test system: UO-31 renal
[6] = test system: RXF 393 renal
[7] = test system: OVCAR-5 ovarian
[8] = test system: PC-3 prostate
[9] = test system: KM12 colon
[10] = test system: SF-539 CNS
[11] = test system: SNB-19 CNS
[12] = test system: NCI-H226 lung
[13] = test system: T-47D breast
[14] = test system: RPMI-8226 leukemia
[15] = test system: SK-MEL-2 melanoma
[16] = test system: HOP-92 NSCLC
[17] = test system: SK-MEL-28 melanoma
[18] = test system: HCT-15 colon
[19] = test system: NCI-H23 lung
[20] = test system: NCI/ADR-RES ovarian
[21] = test system: M14 melanoma
[22] = test system: UACC-62 melanoma
[23] = test system: U251 CNS
[24] = test system: OVCAR-3 ovarian
[25] = test system: TK-10 renal
[26] = test system: BT-549 breast
[27] = test system: MDA-MB-231 breast
[28] = test system: IGROV1 ovarian
[29] = test system: DU-145 prostate
[30] = test system: ACHN renal
[31] = test system: LOX IMVI melanoma
[32] = test system: MCF7 breast
[33] = test system: SF-268 CNS
[34] = test system: EKVX NSCLC
[35] = test system: HOP-62 NSCLC
[36] = test system: A549 NSCLC
[37] = test system: HL-60(TB) leukemia
[38] = test system: 786-0 renal
[39] = test system: NCI-H460 lung
[40] = test system: HS 578T breast
[41] = test system: HT29 colon
[42] = test system: SW-620 colon
[43] = test system: SR leukemia
[44] = test system: HCT-116 colon
[45] = test system: CCRF-CEM leukemia
[46] = test system: SF-295 CNS
[47] = test system: UACC-257 melanoma
[48] = test system: MOLT-4 leukemia
[49] = test system: MDA-MB-435
[50] = test system: K-562 leukemia
[51] = test system: HCC-2998 colon
[52] = test system: SK-OV-3 ovarian
[53] = test system: SN12C renal
[54] = test system: SNB-75 CNS
[55] = test system: A498 renal
[56] = test system: MALME-3M melanoma
[57] = test system: COLO 205 colon

With `O=c1ccccc(-c2ccc(Br)cc2)c1O` the GI50 [1] was 0.247 µM, the TGI [1] was 0.701 µM and the GI50 [2] was 0.461 µM. For the same molecule, the TGI [2] was 40.9 µM, the GI50 [3] was 0.33 µM and the TGI [3] was 27.3 µM. For the same molecule, the GI50 [4] was 0.383 µM, the TGI [4] was > 100 µM and the GI50 [5] was 0.369 µM. It also gave a TGI [5] of 20.4 µM, a GI50 [6] of 0.324 µM and a TGI [6] of 8.12 µM. For the same molecule, the GI50 [7] was 0.725 µM, the TGI [7] was > 100 µM and the GI50 [8] was 0.628 µM. For the same molecule, the TGI [8] was 37.3 µM, the GI50 [9] was 0.43 µM and the TGI [9] was 22.6 µM. For the same molecule, the GI50 [10] was 0.458 µM, the TGI [10] was 12.1 µM and the GI50 [11] was 0.459 µM. For the same molecule, the TGI [11] was > 100 µM, the GI50 [12] was 1.04 µM and the TGI [12] was 16.6 µM. For the same molecule, the GI50 [13] was 0.562 µM, the TGI [13] was 41.3 µM and the GI50 [14] was 0.401 µM. For the same molecule, the TGI [14] was 25 µM, the GI50 [15] was 0.957 µM and the TGI [15] was 25.8 µM. It also gave a GI50 [16] of 6.53 µM, a TGI [16] of 34.1 µM and a GI50 [17] of 0.489 µM. For the same molecule, the TGI [17] was 26.4 µM, the GI50 [18] was 0.256 µM and the TGI [18] was 36 µM. It also gave a GI50 [19] of 0.528 µM, a TGI [19] of 15.8 µM and a GI50 [20] of 0.289 µM. For the same molecule, the TGI [20] was 2.37 µM, the GI50 [21] was 0.316 µM and the TGI [21] was 13.1 µM. The GI50 [22] was 0.298 µM, the TGI [22] was 1.73 µM and the GI50 [23] was 0.383 µM. For the same molecule, the TGI [23] was 13.6 µM, the GI50 [24] was 0.412 µM and the TGI [24] was 27.6 µM. It also gave a GI50 [25] of 0.541 µM, a TGI [25] of 70.7 µM and a GI50 [26] of 0.795 µM. The TGI [26] was 54 µM, the GI50 [27] was 0.737 µM and the TGI [27] was 35.7 µM. For the same molecule, the GI50 [28] was 0.432 µM, the TGI [28] was > 100 µM and the GI50 [29] was 0.595 µM. For the same molecule, the TGI [29] was 45 µM, the GI50 [30] was 0.367 µM and the TGI [30] was 25.1 µM. The GI50 [31] was 0.323 µM, the TGI [31] was 13.8 µM and the GI50 [32] was 0.311 µM. For the same molecule, the TGI [32] was 46.8 µM, the GI50 [33] was 0.42 µM and the TGI [33] was > 100 µM. The GI50 [34] was 0.343 µM, the TGI [34] was 15 µM and the GI50 [35] was 0.377 µM. For the same molecule, the TGI [35] was 15.9 µM, the GI50 [36] was 0.322 µM and the TGI [36] was 24 µM. For the same molecule, the GI50 [37] was 0.262 µM, the TGI [37] was 0.718 µM and the GI50 [38] was 0.408 µM. It also gave a TGI [38] of 21.7 µM, a GI50 [39] of 0.318 µM and a TGI [39] of 10.6 µM. For the same molecule, the GI50 [40] was 4.61 µM, the TGI [40] was 83.8 µM and the GI50 [41] was 6.44 µM. For the same molecule, the TGI [41] was 36.8 µM, the GI50 [42] was 0.41 µM and the TGI [42] was 40.5 µM. For the same molecule, the GI50 [43] was 0.316 µM, the TGI [43] was 17.1 µM and the GI50 [44] was 0.404 µM. For the same molecule, the TGI [44] was 14.6 µM, the GI50 [45] was 0.291 µM and the TGI [45] was > 100 µM. For the same molecule, the GI50 [46] was 0.34 µM, the TGI [46] was 16.8 µM and the GI50 [47] was 0.23 µM. For the same molecule, the TGI [47] was 8.76 µM, the GI50 [48] was 0.334 µM and the TGI [48] was > 100 µM. The GI50 [49] was 0.386 µM, the TGI [49] was > 100 µM and the GI50 [50] was 0.463 µM. The TGI [50] was > 100 µM, the GI50 [51] was 0.425 µM and the TGI [51] was 21.8 µM. The GI50 [52] was 0.428 µM, the TGI [52] was 24.1 µM and the GI50 [53] was 0.829 µM. For the same molecule, the TGI [53] was 16.4 µM, the GI50 [54] was 0.611 µM and the TGI [54] was 27.6 µM. For the same molecule, the GI50 [55] was 1.21 µM, the TGI [55] was 7.68 µM and the GI50 [56] was 2.18 µM. It also gave a TGI [56] of 47.7 µM, a GI50 [57] of 0.466 µM and a TGI [57] of 27 µM.
